Consider four cell lines from the supplement of paper PMC10307832.

What all share (assay): relative viability (nuclei count vs DMSO), 5 days (fraction); higher = more cells survive
Compound in assay [1]: NS(=O)(=O)OC[C@@H]1C[C@@H](n2ccc3c(N[C@H]4CCc5ccccc54)ncnc32)C[C@@H]1O [MLN4924] + CCNC(=O)c1noc(-c2cc(C(C)C)c(O)cc2O)c1-c1ccc(CN2CCOCC2)cc1 [Luminespib] (partner 0.01 µM)
In a few lines: (§1)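 A single step with final 0.05% Triton X-100, 1% formaldehyde and 1 ug/ml Hoechst fixed the cells and stained nuclei 5 days after treatment. Lung cancer cell lines in 1536-well plates had been treated by pin tool the day after seeding with one drug alone or a fixed anchor-drug dose plus five library-drug doses (not always all listed) in √10 steps, and nuclei were counted on 4× images. Relative viability is the ratio of nuclei in treated wells to nuclei in vehicle wells, taken as the median of duplicate plates.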

Compound in assay [2]: NS(=O)(=O)OC[C@@H]1C[C@@H](n2ccc3c(N[C@H]4CCc5ccccc54)ncnc32)C[C@@H]1O [MLN4924] + COc1cccc2cc(-c3nc([C@H]4CC[C@H](C(=O)O)CC4)n4ncnc(N)c34)[nH]c12 [OSI-027] (partner 0.5 µM)
Put shortly:
as §1

Compound in assay [3]: NS(=O)(=O)OC[C@@H]1C[C@@H](n2ccc3c(N[C@H]4CCc5ccccc54)ncnc32)C[C@@H]1O [MLN4924] + Nc1nc2[nH]cc(CCc3ccc(C(=O)N[C@@H](CCC(=O)O)C(=O)O)cc3)c2c(=O)[nH]1 [Pemetrexed] (partner 0.2 µM)
In a few lines: as §1

Compound in assay [4]: CC[C@H](C)N1C=C(C2=C(C=C(C=C21)C3=CN=C(C=C3)N4CCNCC4)C(=O)NCC5=C(C=C(NC5=O)C)C)C [GSK126] + C[C@]1(O)C[C@@H](c2nc(-c3ccc4ccc(-c5ccccc5)nc4c3)c3c(N)nccn32)C1 [Linsitinib] (partner 1 µM)
Put shortly:
as §1

For NCI-H2405, the relative viability in assay [1] (first compound 0.04 µM) came to 0.608; in assay [1] (first compound 0.1265 µM) it was 0.469; in assay [1] (first compound 0.4 µM) it was 0.518; in assay [1] (first compound 1.265 µM), 0.286; in assay [1] (first compound 4 µM), 0.241; in assay [2] (first compound 0.04 µM) it was 0.749. For the same cell line, the relative viability in assay [2] (first compound 0.1265 µM) stood at 0.684; in assay [2] (first compound 0.4 µM), 0.493; in assay [2] (first compound 1.265 µM), 0.309; in assay [2] (first compound 4 µM) it was 0.271; in assay [3] (first compound 0.04 µM), 0.806; in assay [3] (first compound 0.1265 µM) it was 0.863. Further, the relative viability in assay [3] (first compound 0.4 µM) was 0.44; in assay [3] (first compound 1.265 µM), 0.187; in assay [3] (first compound 4 µM), 0.193; in assay [4] (first compound 0.08 µM), 1.02; in assay [4] (first compound 0.253 µM), 0.829; in assay [4] (first compound 0.8 µM), 0.876. Moreover, the relative viability came to 1 in assay [4] (first compound 2.53 µM) and 0.927 in assay [4] (first compound 8 µM).

For the cell line NCI-H3122, the relative viability in assay [1] (first compound 0.04 µM) amounted to 0.078; in assay [1] (first compound 0.1265 µM), 0.063; in assay [1] (first compound 0.4 µM), 0.0724; in assay [1] (first compound 1.265 µM), 0.0583; in assay [1] (first compound 4 µM), 0.0491; in assay [2] (first compound 0.04 µM), 0.917. The relative viability in assay [2] (first compound 0.1265 µM) worked out at 0.603; in assay [2] (first compound 0.4 µM), 0.219; in assay [2] (first compound 1.265 µM), 0.122; in assay [2] (first compound 4 µM), 0.121; in assay [3] (first compound 0.04 µM) it was 0.202; in assay [3] (first compound 0.1265 µM), 0.219. In addition, the relative viability in assay [3] (first compound 0.4 µM) amounted to 0.17; in assay [3] (first compound 1.265 µM), 0.155; in assay [3] (first compound 4 µM), 0.138; in assay [4] (first compound 0.08 µM), 1.03; in assay [4] (first compound 0.253 µM), 0.998; in assay [4] (first compound 0.8 µM), 0.86. For the same cell line, the relative viability in assay [4] (first compound 2.53 µM) stood at 1.05; in assay [4] (first compound 8 µM), 1.04.

Turning to PC-3 [JPC-3], the relative viability came to 0.799 in assay [1] (first compound 0.04 µM); 0.773 in assay [1] (first compound 0.1265 µM); 0.552 in assay [1] (first compound 0.4 µM); 0.346 in assay [1] (first compound 1.265 µM); 0.327 in assay [1] (first compound 4 µM); 0.829 in assay [2] (first compound 0.04 µM). In addition, the relative viability in assay [2] (first compound 0.1265 µM) was 0.744; in assay [2] (first compound 0.4 µM), 0.659; in assay [2] (first compound 1.265 µM), 0.283; in assay [2] (first compound 4 µM), 0.237; in assay [3] (first compound 0.04 µM) it was 1.1; in assay [3] (first compound 0.1265 µM), 1.26. In addition, the relative viability was determined as 0.288 in assay [3] (first compound 0.4 µM); 0.311 in assay [3] (first compound 1.265 µM); 0.377 in assay [3] (first compound 4 µM); 1.01 in assay [4] (first compound 0.08 µM); 0.977 in assay [4] (first compound 0.253 µM); 0.941 in assay [4] (first compound 0.8 µM). In addition, the relative viability in assay [4] (first compound 2.53 µM) came to 0.921; in assay [4] (first compound 8 µM), 0.958.

As to PC-14, the relative viability in assay [1] (first compound 0.04 µM) turned out to be 0.151; in assay [1] (first compound 0.1265 µM), 0.164; in assay [1] (first compound 0.4 µM) it was 0.114; in assay [1] (first compound 1.265 µM) it was 0.116; in assay [1] (first compound 4 µM), 0.152; in assay [2] (first compound 0.04 µM), 1.03. Moreover, the relative viability in assay [2] (first compound 0.1265 µM) worked out at 0.787; in assay [2] (first compound 0.4 µM), 0.378; in assay [2] (first compound 1.265 µM) it was 0.0583; in assay [2] (first compound 4 µM), 0.065; in assay [3] (first compound 0.04 µM) it was 0.157; in assay [3] (first compound 0.1265 µM), 0.128. Moreover, the relative viability was 0.0989 in assay [3] (first compound 0.4 µM); 0.0654 in assay [3] (first compound 1.265 µM); 0.0612 in assay [3] (first compound 4 µM); 0.944 in assay [4] (first compound 0.08 µM); 0.994 in assay [4] (first compound 0.253 µM); 0.982 in assay [4] (first compound 0.8 µM). The relative viability in assay [4] (first compound 2.53 µM) is 0.968; in assay [4] (first compound 8 µM), 0.954.
